Data as given in patent US8987195B2 (priority 2012, dated 2015).
Read-outs that look alike come from different tables or passages of the source.

How the values were obtained:
[1] = system: HCV genotype 1b replicon; assay: HCV replicon assay, genotype 1b replicon EC50; type: cell-based, Hepatitis C virus; conditions: Hepatitis C virus, genotype 1b replicon; read-out: EC50 [gt-1b]
Procedure, shortened: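 Assay format: compound titration on stable replicon cells, no G418 during treatment, 24 to 48 hours. Lysates were assayed for replicon RNA (hybridization/protection or TaqMan) or luciferase; EC50 fitted to four parameters against DMSO.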

[2] = molecular target: HCV NS3/4A protease genotype 1b (Hepatitis C virus genotype 1b, UniProt P26663); assay: HCV NS3/4A protease time-resolved fluorescence (TRF) assay, Ki against genotype 1b; type: biochemical
Procedure, shortened: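 First, protease (genotype 1b 0.2 nM, A156T 0.4 nM, genotype 3a 0.025 nM) is preincubated 30 min with inhibitor. Next, 25 nM TRF substrate starts the reaction, run 2.5 h at room temperature. Finally, europium fluorescence is read and Ki calculated from IC50.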

[3] = molecular target: HCV NS3/4A protease A156T mutant (Hepatitis C virus genotype 1b, UniProt P26663, A1182T); assay: HCV NS3/4A protease time-resolved fluorescence (TRF) assay, Ki against A156T mutant; type: biochemical
Description: (§1) Measuring NS3/4A Inhibitory Activity (Ki) Against Genotype 1b, Against A156T Mutants and Against Genotype 3a
(§2) One assay for measuring inhibitory activity is HCV NS3 protease time-resolved fluorescence (TRF) assay as described below and in Mao et al., Anal. Biochem. 373:1-8, 2008 and International Patent Application Publication WO 2006/102087. A NS3 protease assay can be performed, for example, in a final volume of 20 μl assay buffer containing 50 mM HEPES, pH 7.5, 150 mM NaCl, 15% glycerol, 0.15% TRITON X-100, 10 mM DTT, and 0.1% PEG 8000. NS3 and NS4A protease is pre-incubated with various concentrations of inhibitors in DMSO for 30 min. The reaction is initiated by adding the TRF peptide substrate (final concentration 25 nM). NS3 mediated hydrolysis of the substrate was run for 2.5 hours at room temperature. Product fluorescence is detected using A Pherastar Plus plate reader (BMG) or Envision (Perkin Elmer Life and Analytical Sciences with excitation at 340 nm and emission at 615 nm using the appropriate delay time optimized for the europium fluorescence probe. Testing concentrations of different enzyme forms are selected to result in a signal to background ratio (S/B) of 10-30. IC50 values are derived using a standard four-parameter fit to the data. Ki values are derived from IC50 values using the following formula, IC50=Ki(1+[S]/KM), Eqn (1), where [S] is the concentration of substrate peptide in the reaction and KM is the Michaelis constant. See P. Gallinari et al., 38 BIOCHEM. 5620-32 (1999); P. Gallinari et al., 72 J. VIROL. 6758-69 (1998); M. Taliani et al., 240 ANAL. BIOCHEM. 60-67 (1996); Mao et al., Analytical Biochemistry 373: 1-8, 2008.
(§3) The assay described above was run against genotype 1b at a concentration of 0.2 nM, against A156T mutant strains at a concentration of 0.4 nM, and against genotype 3a at a concentration of 0.025 nM.

[4] = molecular target: HCV NS3/4A protease genotype 3a (Hepatitis C virus genotype 3a, UniProt Q81495); assay: HCV NS3/4A protease time-resolved fluorescence (TRF) assay, Ki against genotype 3a; type: biochemical
Description: as §1, §2, §3

[5] = IC50 [gt-1b] (nM), NS3/4A genotype 1b, enzyme 0.2 nM
[6] = NS3/4A gt-1b A156T mutant, enzyme 0.4 nM, read-out: IC50 [gt-1b A156T]
[7] = IC50 [gt-1b], NS3/4A protease TRF assay, genotype 1b enzyme 0.2 nM
[8] = NS3/4A protease TRF assay, A156T mutant enzyme 0.4 nM, read-out: IC50 [gt-1b A156T]

Row | SMILES | EC50 [1] [pM] | IC50 [4] [pM] | IC50 [3, 6] [pM] | IC50 [2, 7] [nM] | IC50 [3, 8] [pM] | other results
1 | COc1ccc2nc(C(F)(F)F)c3c(c2c1)CC[C@]1(C[C@H]2C(=O)N[C@]4(C(=O)NS(=O)(=O)C5(C)CC5)C[C@H]4/C=C\CCCCC[C@H](NC(=O)OCC(C)C)C(=O)N2C1)O3 [Example 6, Isobutyl ((2R,6S,13aS,14aR,16aS,Z)-9′-methoxy-14a-(((1-methylcyclopropyl)sulfonyl)carbamoyl)-5,16-dioxo-5′-(trifluoromethyl)-1′,2′,3,5,6,7,8,9,10,11,13a,14,14a, 15,16,16a-hexadecahydro-1H-spiro[cyclopropa[e]pyrrolo[1,2-a][1,4]diazacyclopentadecine-2,3′-pyrano[2,3-c]quinolin]-6-yl)carbamate] | 1230 | 530 | – | – | – | IC50 [2, 5]: 0.016 nM; IC50 [3]: 591 pM
2 | CC(C)(C)OC(=O)N[C@H]1CCCCC/C=C\[C@@H]2C[C@@]2(C(=O)NS(=O)(=O)C2(C)CC2)NC(=O)[C@@H]2C[C@]3(CCc4c(c(C(F)(F)F)nc5ccc(OCCCN6CCOCC6)cc45)O3)CN2C1=O [Example 50, tert-Butyl ((2R,6S,13aS,14aR,16aS,Z)-14a-(((1-methylcyclopropyl)sulfonyl)carbamoyl)-9′-(3-morpholinopropoxy)-5,16-dioxo-5′-(trifluoromethyl)-1′,2′,3,5,6,7,8,9, 10,11,13a,14,14a,15,16,16a-hexadecahydro-1H-spiro[cyclopropa[e]pyrrolo[1,2-a][1,4]diazacyclopentadecine-2,3′-pyrano[2,3-c]quinolin]-6-yl)carbamate] | 284 | 96.5 | 78.6 | – | – | IC50 [2, 5]: 0.01 nM
3 | Cc1nc2ccccc2c2c1O[C@@]1(CC2)C[C@H]2C(=O)N[C@]3(C(=O)NS(=O)(=O)C4(C)CC4)C[C@H]3/C=C\CCCCC[C@H](NC(=O)NC(C)(C)C)C(=O)N2C1 [Example 78, (2S,6S,12Z,13aS,14aR,16aS)-6-[(tert-butylcarbamoyl)amino]-5′-methyl-N-[(1-methylcyclopropyl)sulfonyl]-5,16-dioxo-1,1′,2′,6,7,8,9,10,11,13a,14,15,16,16a-tetradecahydrospiro[cyclopropa[e]pyrrolo[1,2-a][1,4]diazacyclopentadecine-2,3′-pyrano[2,3-c]quinoline]-14a(5H)-carboxamide] | 85000 | – | 3110 | – | – | –
4 | Cc1nc2ccccc2c2c1O[C@]1(CC2)C[C@H]2C(=O)N[C@]3(C(=O)NS(=O)(=O)C4(C)CC4)C[C@H]3/C=C\CCCCC[C@H](NC(=O)OC3(C)CC3)C(=O)N2C1 [Example 79, 1-methylcyclopropyl [(2R,6S,12Z,13aS,14aR,16aS)-5′-methyl-14a-{[(1-methylcyclopropyl)sulfonyl]carbamoyl}-5,16-dioxo-1,1′,2′,5,6,7,8,9,10,11,13a,14,14a,15,16,16a-hexadecahydrospiro[cyclopropa[e]pyrrolo[1,2-a][1,4]diazacyclopentadecine-2,3′-pyrano[2,3-c]quinolin]-6-yl]carbamate] | 1690 | – | 151 | – | – | –
5 | COc1cc(Cl)c2nc(C(F)(F)F)c3c(c2c1)CC[C@]1(C[C@H]2C(=O)N[C@]4(C(=O)NS(=O)(=O)C5(C)CC5)C[C@H]4/C=C\CCCCC[C@H](NC(=O)OC(C)(C)C)C(=O)N2C1)O3 [Example 398, tert-butyl [(2R,6S,12Z,13aS,14aR,16aS)-7′-chloro-9′-methoxy-14a-{[(1-methylcyclopropyl)sulfonyl]carbamoyl}-5,16-dioxo-5′-(trifluoromethyl)-1,1′,2′,5,6,7,8,9,10,11,13a,14,14a,15,16,16a-hexadecahydrospiro[cyclopropa[e]pyrrolo[1,2-a][1,4]diazacyclopentadecine-2,3′-pyrano[2,3-c]quinolin]-6-yl]carbamate] | – | 2350 | – | 0.025 | 496 | –
6 | COc1cc(Cl)c2nc(C(F)(F)F)c3c(c2c1)CC[C@]1(C[C@H]2C(=O)N[C@]4(C(=O)NS(=O)(=O)C5(C)CC5)C[C@H]4/C=C\CCCCC[C@H](NC(=O)OCC(C)C)C(=O)N2C1)O3 [Example 399, 2-methylpropyl [(2R,6S,12Z,13aS,14aR,16aS)-7′-chloro-9′-methoxy-14a-{[(1-methylcyclopropyl)sulfonyl]carbamoyl}-5,16-dioxo-5′-(trifluoromethyl)-1,1′,2′,5,6,7,8,9,10,11,13a,14,14a,15,16,16a-hexadecahydrospiro[cyclopropa[e]pyrrolo[1,2-a][1,4]diazacyclopentadecine-2,3′-pyrano[2,3-c]quinolin]-6-yl]carbamate] | – | 6450 | – | 0.027 | 1450 | –
7 | COc1ccc2nc(C(F)(F)F)c3c(c2c1)[C@](C)(O)C[C@]1(C[C@H]2C(=O)N[C@]4(C(=O)NS(=O)(=O)C5(C)CC5)C[C@H]4/C=C\CCCCC[C@H](NC(=O)OC4(C)CCC4)C(=O)N2C1)O3 [Example 507, 1-methylcyclobutyl [(1′R,2S,6S,12Z,13aS,14aR,16aS)-1′-hydroxy-9′-methoxy-1′-methyl-14a-{[(1-methylcyclopropyl)sulfonyl]carbamoyl}-5,16-dioxo-5′-(trifluoromethyl)-1,1′,2′,5,6,7,8,9,10,11,13a,14,14a,15,16,16a-hexadecahydrospiro[cyclopropa[e]pyrrolo[1,2-a][1,4]diazacyclopentadecine-2,3′-pyrano[2,3-c]quinolin]-6-yl]carbamate] | – | 4450 | – | 0.025 | 2370 | –
8 | COCCCOc1ccc2nc(C(F)(F)F)c3c(c2c1)CC[C@]1(C[C@H]2C(=O)N[C@]4(C(=O)NS(=O)(=O)C5(C)CC5)C[C@H]4/C=C\CCCCC[C@H](NC(=O)OC4(C)CCC4)C(=O)N2C1)O3 [Example 522, 1-methylcyclobutyl [(2R,6S,12Z,13aS,14aR,16aS)-9′-(3-methoxypropoxy)-14a-{[(1-methylcyclopropyl)sulfonyl]carbamoyl}-5,16-dioxo-5′-(trifluoromethyl)-1,1′,2′,5,6,7,8,9,10,11,13a,14,14a,15,16,16a-hexadecahydrospiro[cyclopropa[e]pyrrolo[1,2-a][1,4]diazacyclopentadecine-2,3′-pyrano[2,3-c]quinolin]-6-yl]carbamate] | – | 311 | – | – | – | IC50 ([2]; IC50 [gt-1b], NS3/4A protease TRF assay, genotype 1b enzyme 0.2 nM, K+ salt): 0.005 nM; IC50 ([3]; NS3/4A protease TRF assay, A156T mutant enzyme 0.4 nM, K+ salt, read-out: IC50 [gt-1b A156T]): 281 pM
9 | COc1ccc2nc(C(F)F)c3c(c2n1)CC[C@]1(C[C@H]2C(=O)N[C@]4(C(=O)NS(=O)(=O)C5(C)CC5)C[C@H]4/C=C\CCCCC[C@H](NC(=O)O[C@@H]4C[C@@H]5C[C@@H]5C4)C(=O)N2C1)O3 [Example 524, (1R,3r,5S)-bicyclo[3.1.0]hex-3-yl [(2R,6S,12Z,13aS,14aR,16aS)-6′-(difluoromethyl)-2′-methoxy-14a-{[(1-methylcyclopropyl)sulfonyl]carbamoyl}-5,16-dioxo-1,5,6,7,8,9,9′,10,10′,11,13a,14,14a,15,16,16a-hexadecahydrospiro[cyclopropa[e]pyrrolo[1,2-a][1,4]diazacyclopentadecine-2,8′-pyrano[2,3-c][1,5]naphthyridin]-6-yl]carbamate] | – | 109 | – | 0.003 | 182 | –
10 | C=C[C@@H]1C[C@]1(NC(=O)[C@@H]1C[C@]23CCc4c(c(nc5ccc(OC)cc45)CCCCC[C@@H]4C[C@H]4OC(=O)N[C@@H](C(C)(C)C)C(=O)N1C2)O3)C(=O)NS(=O)(=O)C1(C)CC1 [Example 527] | – | 679 | – | 0.026 | – | –
